# Data: patent US20160272992A1, “PROTECTION OF PLANTS AGAINST OXIDATIVE STRESS” (priority 2013, published 2016)
# Key:
# Arabidopsis seedlings = assay: High-light transfer of seedlings: PSII efficiency (chlorophyll a fluorescence) and leaf appearance; format: in vivo, Arabidopsis thaliana
# Experimental: Unless stated otherwise, plants of Arabidopsis thaliana (L.) Heyhn (ecotype Columbia), were grown under long-day conditions (16 hours of light, 8 hours of darkness) at 22° C. on half-strength Murashige and Skoog (MS) germination medium (Murashige and Skoog, 1962). Arabidopsis plants were treated with HU as described by Cools et al. (2011). […] For light treatments, one-week-old seedlings were transferred to continuous high-light conditions (growth rooms kept at 22° C. with 24-hour day/0-hour night cycles and a light intensity of 300-400 μmol m^−2 s^−1) for 2 days, and subsequently retransferred to low-light conditions.
# Chlorophyll a fluorescence parameters were measured using the IMAGING PAM M-Series Chlorofyll Fluorescence (Walz) and associated software.
# [1] = test system: 5-day-old wild-type root tips; conditions: 2-mM hydroxyurea; cited from earlier work
# catalase = assay: Catalase assay (H2O2 breakdown by leaf protein extract); format: biochemical, Arabidopsis thaliana; conditions: extracts of control plants germinated on 1 mM HU
# Experimental: Plants were germinated on either control medium, medium with 1 mM HU or 6 μM 3-AT. Leaf tissue of 10 plants was ground in 200 μL extraction buffer (60 mM Tris (pH 6.9), 1 mM phenylmethylsulfonylfluoride, 10 mM DTT) on ice. The homogenate was centrifuged at 13,000 g for 15 minutes at 4° C. A total of 45 μg protein extract was mixed with potassium phosphate buffer (50 mM, pH 7.0) (Vandenabeele et al., 2004). After addition of 11.4 μL H2O2 (7.5%), the absorbance of the sample at 240 nm after 0 and 60 seconds was measured to determine catalase activity by H2O2 breakdown (Beers and Sizer, 1952; Vandenabeele et al., 2004).
# SIM/SMR promoters = assay: SIM/SMR promoter:GUS transcriptional reporter lines; format: in vivo, Arabidopsis thaliana
# Description: SIM/SMR promoter sequences were amplified from genomic DNA by PCR using the primers described in Table 5. The product fragments were created with the Pfu DNA Polymerase Kit (Promega, Catalog #M7745), and were cloned into a pDONR P4-Plr entry vector by BP recombination cloning and subsequently transferred into the pMK7S*NFml4GW,0 destination vector by LR cloning, resulting in a transcriptional fusion between the promoter of the SMR genes and the nlsGFP-GUS fusion gene (Karimi et al., 2007). For the overexpression constructs, the SMR coding regions were amplified using primers described in Table 5, and cloned into the pDONR221 vector by BP recombination cloning and subsequently transferred into the pK2GW7 destination vector (Kamimi et al., 2002) by LR cloning. All constructs were transferred into the Agrobacterium tumefaciens C58C1RifR strain harboring the pMP90 plasmid. The obtained Agrobacterium strains were used to generate stably transformed Arabidopsis lines with the floral dip transformation method (Clough and Bent, 1998). Transgenic plants were obtained on kanamycin-containing medium and later transferred to soil for optimal seed production.
# Complete seedlings or tissue cuttings were stained in multiwell plates (Falcon 3043; Becton Dickinson). GUS assays were performed as described by Beeckman and Engler (1994). Samples mounted in lactic acid were observed and photographed with a stereomicroscope (Olympus BX51 microscope) or with a differential interference contrast (DIC) microscope (Leica).
# To confirm involvement of SIM/SMR genes in the genotoxic stress response, transcriptional reporter lines containing the putative upstream promoter sequences were constructed for all. After selection of representative reporter lines, one-week-old seedlings were transferred to control medium, or medium supplemented with HU (resulting into stalled replication forks) or bleomycin (causing DSBs).
# ZmSMRg and ZmSMRh = assay: qRT-PCR of maize SMR genes after HU treatment; format: in vivo; conditions: root tips and leaves
compound,measurement,setting,value
"NC(=O)NO [HU, hydroxyurea]",maximum quantum efficiency of PSII (F′v/F′m),"Arabidopsis seedlings; one-week-old seedlings, 48 hours high light, in the presence of HU vs absence",decrease was even more pronounced
same,anthocyanin accumulation after transfer to high light,"Arabidopsis seedlings; plants grown in the presence of HU, within 48 hours after transfer",accumulated anthocyanins in the young leaf tissue
same,"HU 24 h/0 h fold change, AT1G07500 (Siamese-related 5)",[1],7.863
same,"HU 24 h/0 h fold change, AT1G09815 (polymerase delta 4)",[1],2.354
same,"HU 24 h/0 h fold change, AT1G12020 (unknown protein)",[1],1.873
same,"HU 24 h/0 h fold change, AT1G13330 (Hop2 homolog)",[1],2.949
same,"HU 24 h/0 h fold change, AT1G17460 (TRF-like 3)",[1],2.378
same,"HU 24 h/0 h fold change, AT1G30600 (Subtilase family protein)",[1],1.711
same,"HU 24 h/0 h fold change, AT1G31280 (Argonaute family protein)",[1],1.866
same,"HU 24 h/0 h fold change, AT1G49030 (PLAC8 family protein)",[1],1.553
same,"HU 24 h/0 h fold change, AT1G59660 (Nucleoporin autopeptidase)",[1],1.860
same,"HU 24 h/0 h fold change, AT1G76180 (Dehydrin family protein)",[1],1.659
same,"HU 24 h/0 h fold change, AT2G18600 (Ubiquitin-conjugating enzyme family protein)",[1],5.521
same,"HU 24 h/0 h fold change, AT2G21790 (ribonucleotide reductase 1)",[1],2.514
same,"HU 24 h/0 h fold change, AT2G30360 (SOS3-interacting protein 4)",[1],2.274
same,"HU 24 h/0 h fold change, AT2G31320 (poly(ADP-ribose) polymerase 2)",[1],2.445
same,"HU 24 h/0 h fold change, AT2G36910 (ATP binding cassette subfamily B1)",[1],1.569
same,"HU 24 h/0 h fold change, AT2G45460 (SMAD/FHA domain-containing protein)",[1],2.378
same,"HU 24 h/0 h fold change, AT2G46610 (RNA-binding RRM/RBD/RNP motifs family protein)",[1],3.593
same,"HU 24 h/0 h fold change, AT2G47680 (zinc finger CCCH type helicase family protein)",[1],3.422
same,"HU 24 h/0 h fold change, AT3G02400 (SMAD/FHA domain-containing protein)",[1],2.479
same,"HU 24 h/0 h fold change, AT3G07800 (Thymidine kinase)",[1],7.160
same,"HU 24 h/0 h fold change, AT3G12510 (MADS-box family protein)",[1],2.266
same,"HU 24 h/0 h fold change, AT3G15240 (Serine/threonine-protein kinase WNK-related)",[1],1.790
same,"HU 24 h/0 h fold change, AT3G20490 (unknown protein)",[1],2.313
same,"HU 24 h/0 h fold change, AT3G25250 (AGC kinase family protein)",[1],1.853
same,"HU 24 h/0 h fold change, AT3G27060 (Ferritin/ribonucleotide reductase-like family protein)",[1],4.595
same,"HU 24 h/0 h fold change, AT3G27620 (alternative oxidase 1C)",[1],2.056
same,"HU 24 h/0 h fold change, AT3G27950 (GDSL-like Lipase/Acylhydrolase superfamily protein)",[1],1.641
same,"HU 24 h/0 h fold change, AT3G42860 (zinc knuckle CCHC-type family protein)",[1],2.445
same,"HU 24 h/0 h fold change, AT3G45730 (unknown protein)",[1],5.637
same,"HU 24 h/0 h fold change, AT4G02390 (Poly(ADP-ribose) polymerase)",[1],7.701
same,"HU 24 h/0 h fold change, AT4G04750 (Major facilitator superfamily protein)",[1],1.625
same,"HU 24 h/0 h fold change, AT4G11740 (Ubiquitin-like superfamily protein)",[1],1.653
same,"HU 24 h/0 h fold change, AT4G15480 (UDP-Glycosyltransferase superfamily protein)",[1],2.196
same,"HU 24 h/0 h fold change, AT4G19130 (Replication factor-A protein 1-related)",[1],2.305
same,"HU 24 h/0 h fold change, AT4G21070 (Breast cancer susceptibility1)",[1],10.375
same,"HU 24 h/0 h fold change, AT4G22960 (Unknown function DUF544)",[1],5.315
same,"HU 24 h/0 h fold change, AT4G28950 (RHO-related protein from plants 9)",[1],9.680
same,"HU 24 h/0 h fold change, AT4G29170 (Mnd1 family protein)",[1],2.898
same,"HU 24 h/0 h fold change, AT4G35740 (DEAD/DEAH box RNA helicase family protein)",[1],2.594
same,"HU 24 h/0 h fold change, AT5G02220 (unknown protein; SMR4)",[1],4.500
same,"HU 24 h/0 h fold change, AT5G03780 (TRF-like 10)",[1],7.111
same,"HU 24 h/0 h fold change, AT5G06190 (unknown protein)",[1],2.878
same,"HU 24 h/0 h fold change, AT5G11460 (Protein of unknown function DUF581)",[1],5.483
same,"HU 24 h/0 h fold change, AT5G14920 (Gibberellin-regulated family protein)",[1],2.789
same,"HU 24 h/0 h fold change, AT5G14930 (senescence-associated gene 101)",[1],1.542
same,"HU 24 h/0 h fold change, AT5G20850 (RAS associated with diabetes protein 51)",[1],4.643
same,"HU 24 h/0 h fold change, AT5G24280 (Gamma-irradiation and mitomycin c induced 1)",[1],4.823
same,"HU 24 h/0 h fold change, AT5G25810 (Integrase-type DNA-binding superfamily protein)",[1],1.558
same,"HU 24 h/0 h fold change, AT5G40840 (Rad21/Rec8-like family protein)",[1],3.375
same,"HU 24 h/0 h fold change, AT5G48720 (X-ray induced transcript 1)",[1],5.296
same,"HU 24 h/0 h fold change, AT5G49480 (Ca2+-binding protein 1)",[1],1.952
same,"HU 24 h/0 h fold change, AT5G55490 (Gamete expressed protein 1)",[1],1.670
same,"HU 24 h/0 h fold change, AT5G60100 (pseudo-response regulator 3)",[1],1.619
same,"HU 24 h/0 h fold change, AT5G60250 (Zinc finger C3HC4-type RING finger family protein)",[1],8.907
same,"HU 24 h/0 h fold change, AT5G64060 (NAC domain containing protein 103)",[1],5.579
same,"HU 24 h/0 h fold change, AT5G66130 (RADIATION SENSITIVE 17)",[1],2.888
same,"HU 24 h/0 h fold change, AT5G66985 (unknown protein)",[1],3.294
same,"HU 24 h/0 h fold change, AT5G67360 (Subtilase family protein)",[1],1.676
same,"HU 24 h/0 h fold change, AT5G67460 (O-Glycosyl hydrolases family 17 protein)",[1],2.799
same,H2O2 decomposition rate of plant extracts,catalase,reduced H2O2 decomposition rate
same,"transcriptional induction of SMR4, SMR5 and SMR7 reporters in the root meristem","SIM/SMR promoters; one-week-old seedlings, 1 mM HU, GUS assay 24 hours after transfer",strong transcriptional induction
same,induction of SMR5 and SMR7 GUS reporters in the proliferating leaf,SIM/SMR promoters; treated for 24 hours,induced
same,transcriptional induction of maize SMR genes ZmSMRg and ZmSMRh,ZmSMRg and ZmSMRh,strong up-regulation
